One may read the EC50 as the concentration needed to bring the measured effect to its halfway point. The low end stands for a more potent agent, the high end for a less potent agent.

For one experiment, the target named is FMDV 3C^pro (Foot-and-mouth disease virus serotype O, UniProt P03305). As to the kind of experiment: cell-based. In kind it is cell-based.
For experiment [1], the target named is T1, CVB3 3C^pro (Coxsackievirus B3, UniProt P03313). As to the kind of experiment: Cell-based protease assay.
The next experiment deals with HAV strain HM175. The following applies: ref Debing et al., 2013; cited from earlier work.
The target of a further experiment is T2, HPeV 3C^pro (Human parechovirus 1, UniProt Q66578).
T2 sequence (Q66578 1518-1711 limits assumed): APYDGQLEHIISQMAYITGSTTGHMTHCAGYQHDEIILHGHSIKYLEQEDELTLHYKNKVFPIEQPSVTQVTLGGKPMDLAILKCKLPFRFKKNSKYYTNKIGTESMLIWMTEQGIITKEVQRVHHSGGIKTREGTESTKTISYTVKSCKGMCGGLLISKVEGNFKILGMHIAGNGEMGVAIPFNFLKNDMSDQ
In kind it is cell-based.

A further experiment deals with SAFV. The experiment in a line: Growth curves of SAFV. Format: cell-based. The following applies: 50 μM.
For a further experiment, the target named is HRV14 3C^pro (Human rhinovirus 14, UniProt P03303). Format: cell-based.
Another experiment has as its target T3, EMCV 3C^pro (Encephalomyocarditis virus, UniProt P03304).
T3 sequence (P03304 1626-1830 limits assumed): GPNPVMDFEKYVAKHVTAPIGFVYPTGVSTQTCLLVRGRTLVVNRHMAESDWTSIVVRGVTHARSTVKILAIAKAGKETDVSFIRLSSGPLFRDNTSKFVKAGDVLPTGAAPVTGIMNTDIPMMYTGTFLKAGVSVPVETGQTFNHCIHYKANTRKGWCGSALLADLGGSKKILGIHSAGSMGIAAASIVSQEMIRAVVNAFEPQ
Format: cell-based.

The target of experiment [2] is T1, CVB3 3C^pro. As to the kind of experiment: Cell-based protease assay with EGFP read-out. The following applies: 50 μM, COS-1 cells, imaged after 2 days.
A further experiment deals with EMCV. As to the kind of experiment: Growth curves of EMCV. In kind it is cell-based. The following applies: 50 μM.
A further experiment deals with T4, SAFV 3C^pro (Saffold virus, UniProt C0MHL9).
T4 sequence (C0MHL9 1618-1834 limits assumed): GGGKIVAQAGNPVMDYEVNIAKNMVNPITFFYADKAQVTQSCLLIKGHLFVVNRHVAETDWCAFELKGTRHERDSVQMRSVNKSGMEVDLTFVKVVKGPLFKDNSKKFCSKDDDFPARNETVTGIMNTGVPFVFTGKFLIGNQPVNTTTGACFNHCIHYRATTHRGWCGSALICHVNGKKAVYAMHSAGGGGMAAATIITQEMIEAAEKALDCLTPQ
Format: cell-based.

For a further experiment, the target named is EV71 3C^pro (Human enterovirus 71, UniProt Q66478). In kind it is cell-based.
The target of a further experiment is T5, HAV 3C^pro (Human hepatitis A virus genotype IB, UniProt P08617).
T5 sequence (P08617 1520-1738 limits assumed): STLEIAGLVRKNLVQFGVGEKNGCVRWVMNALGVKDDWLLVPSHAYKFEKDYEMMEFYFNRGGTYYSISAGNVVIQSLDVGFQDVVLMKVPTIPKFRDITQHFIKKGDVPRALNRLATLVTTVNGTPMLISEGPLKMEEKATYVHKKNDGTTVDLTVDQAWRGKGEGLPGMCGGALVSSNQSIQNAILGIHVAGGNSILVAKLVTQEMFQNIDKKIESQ
Format: cell-based.

In experiment [3] the target is T1, CVB3 3C^pro. The experiment in a line: Western blot of fusion protein cleavage in COS-1 cells. In kind it is cell-based. The note with it: 50 μM, pBind-3Cpro(CVB3)-VP16. (Immunoblotting shows a protein as a band on a membrane.)
The target of another experiment is PV 3C^pro (Poliovirus type 1, UniProt P03300). In kind it is cell-based.

Regarding `C#CC[C@@H](C(=O)N[C@H](/C=C/C(=O)OCC)C[C@@H]1CCNC1=O)n1cccc(NC(=O)c2cc(C)on2)c1=O` [AG7404], at FMDV 3C^pro, the EC50 was more than 100 µM and the “inhibitory activity towards FMDV 3Cpro” value is listed as “little or no inhibitory activity”. For the same compound, the EC50 at CVB3 3C^pro [1] is 3.6 µM.

With `CCOC(=O)/C=C/[C@H](C[C@@H]1CCNC1=O)NC(=O)[C@@H](CC(=O)[C@@H](NC(=O)c1cc(C)on1)C(C)C)Cc1ccc(F)cc1` [AG7088], the “effect on HAV replication, strain HM175” value in the experiment with HAV strain HM175 is recorded as “no effect”. The “effect on reporter activity, HPeV 3Cpro construct” value at HPeV 3C^pro is given as “no effect”. Also, in the experiment on SAFV, the “activity against SAFV in growth curves” value is recorded as “no significant activity”. Besides, at HRV14 3C^pro, the “FLuc expression upon treatment, HRV14 3Cpro construct” value was “induced”. Besides, the “effect on reporter activity, EMCV 3Cpro construct” value at EMCV 3C^pro is listed as “no effect”. Also, on CVB3 3C^pro [2], the “GFP signal from pG5EGFP reporter” value is on record as “GFP was visible”. Further, the “activity against EMCV in growth curves” value with EMCV is reported as “no significant activity”. In addition, the “FLuc expression upon treatment, FMDV 3Cpro construct” value at FMDV 3C^pro was “increased”. At SAFV 3C^pro, the “effect on reporter activity, SAFV 3Cpro construct” value is listed as “no effect”. Further, the “FLuc expression upon treatment, EV71 3Cpro construct” value at EV71 3C^pro was “induced”. At HAV 3C^pro, the “effect on reporter activity, HAV 3Cpro construct” value is on record as “no effect”. The compound also displayed an EC50 on CVB3 3C^pro [1] of 1.1 µM. At CVB3 3C^pro [1] (50 μM, COS-1 cells), the “FLuc expression upon treatment, CVB3 3Cpro construct” value was “induced”. Moreover, the “increase in FLuc levels compared to untreated” value on CVB3 3C^pro [1] (50 μM, COS-1 cells, CVB3 3Cpro construct) is given as approximately 40 fold. Besides, the “cleavage of fusion protein (Western blot)” value on CVB3 3C^pro [3] is on record as “not completely blocked”. Moreover, at PV 3C^pro, the “FLuc expression upon treatment, PV 3Cpro construct” value was “induced”.

The values are drawn from article PMC7113757 (Antiviral Research, 2014).
